Measurements from ChEMBL document CHEMBL1130060, “Novel prodrugs of cyanamide that inhibit aldehyde dehydrogenase in vivo” (1997).

Experiments:
[1] = molecular target: T1, Aldehyde dehydrogenase 1A1 (Rattus norvegicus) (UniProt P51647); assay: Inhibitory activity against aldehyde dehydrogenase in rats.; conditions: concentration not given here
T1 sequence (whole entry): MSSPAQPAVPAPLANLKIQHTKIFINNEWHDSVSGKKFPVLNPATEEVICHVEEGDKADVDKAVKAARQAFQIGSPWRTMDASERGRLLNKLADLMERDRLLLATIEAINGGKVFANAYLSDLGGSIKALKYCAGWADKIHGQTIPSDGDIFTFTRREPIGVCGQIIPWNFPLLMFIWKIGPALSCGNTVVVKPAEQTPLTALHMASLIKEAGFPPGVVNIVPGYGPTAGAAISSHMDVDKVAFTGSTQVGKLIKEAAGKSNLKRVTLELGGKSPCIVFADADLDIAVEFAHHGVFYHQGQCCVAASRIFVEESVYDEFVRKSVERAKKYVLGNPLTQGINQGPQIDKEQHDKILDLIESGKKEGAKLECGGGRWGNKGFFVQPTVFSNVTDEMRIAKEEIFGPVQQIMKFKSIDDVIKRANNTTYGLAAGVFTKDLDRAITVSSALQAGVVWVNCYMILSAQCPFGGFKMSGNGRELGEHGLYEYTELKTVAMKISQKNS

[2] = test system: Rattus norvegicus; assay: Blood acetaldehyde level in rats following the administration of the compound.; type: functional
[3] = test system: Rattus norvegicus; assay: Blood EtOH level in rats following the administration of the compound.; type: functional

SMILES	inhibition [1] [%]	Potency [2] [mM]	Potency [3] [mM]
CCCCSC(=N)N	82	–	–
C=CCSC(=N)N	88	–	–
CC(=O)NCCSC(=N)N	–	0.067	50.1
CC(C)CSC(=N)N	66	–	–
